Measured values as given in US10501436B2, “Compounds and methods of use” (Medivation Technologies LLC, priority 2014, dated 2019).
Blank lines part the entries; values can stand above or below the compound they belong to.

Columns and labels:
[1] = Pharmacokinetics and bioavailability in male mice after a single dose; assay type: in vivo
ALK2 (ACVR1) = ALK2 (ACVR1) (Homo sapiens (Human), UniProt Q04771); experiment: In vitro kinase assay (33P ATP), ALK2; assay type: biochemical; conditions: 10 μM ATP; read-out: Inhibition of ALK2 (IC50 μM)
p-SMAD2 = p-SMAD2 inhibition, Western Blot Analysis in MDA-MB-231 cells treated with TGFβ; assay type: cell-based; conditions: Homo sapiens, TGFβ 2 ng/mL, samples run in triplicate; for inhibition at 0.1 µM: 0.1 μM compound, read-out: Average p-SMAD2 inhibition @ 0.1 μM (% Inh); for inhibition at 0.5 µM: 0.5 μM compound, read-out: Average p-SMAD2 inhibition @ 0.5 μM (% Inh)
[2] = Plasma and brain concentrations at 0.5 and 1 h; assay type: in vivo, mice; conditions: PO

Chain of ALK2 (ACVR1) (Q04771 21-509): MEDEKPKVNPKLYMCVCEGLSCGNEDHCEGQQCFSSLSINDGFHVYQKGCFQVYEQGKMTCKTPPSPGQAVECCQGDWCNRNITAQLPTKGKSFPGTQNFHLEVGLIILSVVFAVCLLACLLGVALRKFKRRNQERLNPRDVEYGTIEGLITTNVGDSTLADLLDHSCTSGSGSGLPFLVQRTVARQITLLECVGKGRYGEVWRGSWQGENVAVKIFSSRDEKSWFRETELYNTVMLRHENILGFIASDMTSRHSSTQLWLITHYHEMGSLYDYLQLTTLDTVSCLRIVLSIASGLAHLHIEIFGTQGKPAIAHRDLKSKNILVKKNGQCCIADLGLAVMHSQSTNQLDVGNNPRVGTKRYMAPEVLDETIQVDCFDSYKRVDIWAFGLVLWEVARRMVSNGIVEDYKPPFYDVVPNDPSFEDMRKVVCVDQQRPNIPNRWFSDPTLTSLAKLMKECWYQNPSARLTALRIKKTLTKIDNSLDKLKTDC

- AUClast ([1]; Intravenous, 2 mg/kg): 2.56 µM·h
- CL ([1]; Intravenous, 2 mg/kg): 12.8 mL/min/kg
- AUClast ([1]; Oral, 10 mg/kg): 10.5 µM·h
Compound: C=C(C)c1cnc(-c2cc(Cl)ccc2F)cc1Nc1ccncc1C(=O)NCC(C)O (single isomer, unassigned) [Compound 3a]

Compound: COc1cnc(-c2cc(Cl)ccc2F)cc1Nc1ccncc1C(=O)NCC(C)O (single isomer, unassigned) [Compound 13a]
- IC50 (ALK2 (ACVR1)): > 100 µM

Compound: CC(C)c1cnc(-c2cc(Cl)ccc2F)cc1Nc1n[nH]cc1C(=O)NC[C@H](C)O (single isomer, unassigned) [Compound 21a, 3-[[2-(5-chloro-2-fluoro-phenyl)-5-isopropyl-4-pyridyl]amino]-N-(2-hydroxypropyl)-1H-pyrazole-4-carboxamide]
- inhibition at 0.1 µM (p-SMAD2): 4.67%
- inhibition at 0.5 µM (p-SMAD2): 7.67%

- AUClast ([1]; Intravenous, 2 mg/kg): 1.11 µM·h
- CL ([1]; Intravenous, 2 mg/kg): 66 mL/min/kg
- AUClast ([1]; Oral, 10 mg/kg): 0.907 µM·h
Compound: C=C(C)c1c(Nc2ccncc2C(=O)NCC(C)O)cc(-c2cc(Cl)ccc2F)nc1N (single isomer, unassigned) [Compound 23a]

Compound: CC(C)c1cnc(-c2cc(Cl)ccc2F)cc1Nc1ccncc1CNC[C@H](C)O [Compound 5a, (S)-1-((4-(2-(5-chloro-2-fluorophenyl)-5-isopropylpyridin-4-ylamino)pyridin-3-yl)methylamino)propan-2-ol]
- inhibition at 0.1 µM (p-SMAD2): 14.3%
- inhibition at 0.5 µM (p-SMAD2): 41.3%

Compound: C=C(C)c1cnc(-c2cc(Cl)ccc2F)cc1Nc1ccncc1C(=O)N[C@H](C)CO [Compound 7b, (2R)-4-[[2-(5-chloro-2-fluoro-phenyl)-5-isopropenyl-4-pyridyl]amino]-N-(2-hydroxy-1-methyl-ethyl)pyridine-3-carboxamide]
- IC50 (ALK2 (ACVR1)): > 100 µM

Compound: C=Cc1cnc(-c2cc(Cl)ccc2F)cc1Nc1ccncc1C(=O)NC[C@H](C)O [Compound 10a, (S)-4-(2-(5-chloro-2-fluorophenyl)-5-vinylpyridin-4-ylamino)-N-(2-hydroxypropyl) nicotinamide]
- inhibition at 0.5 µM (p-SMAD2): 64.3%

- Brain Concentration (μM) ([2]; 0.5 h): BLQ
- Brain Concentration (μM) ([2]; 1 h): BLQ
Compound: CC(C)c1cnc(-c2cc(Cl)ccc2F)cc1Nc1ccncc1C(=O)NCCN [Compound 19, N-(2-aminoethyl)-4-[[2-(5-chloro-2-fluoro-phenyl)-5-isopropyl-4-pyridyl]amino]pyridine-3-carboxamide]

Compound: C=C(C)c1cnc(-c2cc(Cl)ccc2F)cc1Nc1n[nH]cc1C(=O)NC[C@H](C)O [Compound 20a, (S)-3-[[2-(5-chloro-2-fluoro-phenyl)-5-isopropenyl-4-pyridyl]amino]-N-(2-hydroxypropyl)-1H-pyrazole-4-carboxamide]
- inhibition at 0.1 µM (p-SMAD2): 0%
- inhibition at 0.5 µM (p-SMAD2): 3.67%
